Experimental data: paper PMC11475369, “Exploring the Potential of Synthetic Cannabinoids: Modulation of Biological Activity of Normal and Cancerous Human Colon Epithelial Cells” (Cells, 2024)
Values after ≈ are worked out from the molar mass of the structure shown.

Tests used:
CCD 841 CoTr cells [1] = test: MTT assay, metabolic activity of CCD 841 CoTr cells; assay type: cell-based, human; conditions: for IC50: Homo sapiens, CCD-841, 24 h, read-out: IC50 Values (MTT method)
Protocol: (§1) The HT29 cell line (ATCC no. HTB-38) (human colon adenocarcinoma) was used in the present study. Cells were cultivated in RPMI 1640 culture medium with 10% fetal calf serum (FCS) (GibcoTM, Paisley, UK), supplemented with antibiotics (100 U/mL penicillin and 100 μg/mL streptomycin) (Sigma, St. Louis, MO, USA). The cell culture was performed in standard conditions, i.e., at 37 °C in a humidified atmosphere with 5% CO2. The CCD 841 CoTr cell line (ATCC no. CRL-1807) (human normal colon epithelium) was cultivated in RPMI 1640 +DMEM (1:1) medium (Sigma, St. Louis, MO, USA) with 10% FCS and the addition of antibiotics. The culture was carried out at 34 °C in a 5% CO2/95% air atmosphere.
After seeding (1 × 10^5 cells/mL) in a 96-well plate, the cells were incubated for 24 h. Thereafter, the tested compounds (100 μL) at a concentration range of 0–200 μg/mL in the culture medium were added to the wells (100 μL). The incubation lasted for 24 h. After that time, an MTT solution (5 mg/mL, 25 μL/well) was added to each well. The incubation was continued for another 3 h. After the incubation, 10% sodium dodecyl sulfate (SDS) in 0.01 M HCl (100 μL) was added in order to dissolve the purple formazan crystals. Solubilization was carried out overnight. Finally, spectrophotometric measurement was performed at 570 nm using an EL800 Universal Microplate Reader (BioTek Instruments, Winooski, VT, USA).

HT29 cells [2] = test: Neutral Red (NR) uptake assay, viability of HT29 cells; assay type: cell-based; conditions: Homo sapiens, HT-29; HT29 colon tumor cells, 24 h incubation
Protocol: as §1
After seeding (1 × 10^5 cells/mL) in a 96-well plate, the cells were incubated for 24 h. Thereafter, the tested compounds (100 μL) at a concentration range of 0–200 μg/mL in the culture medium were added to the wells (100 μL). The incubation lasted for 24 h. After that time, the culture medium was removed and a 0.4% Neutral Red solution in the culture medium was added to each well. The incubation was continued for another 3 h. After the incubation, the medium with the NR dye was discarded, and 4% paraformaldehyde in 1% CaCl2 was added for cell fixation (200 μL) and incubated for 3 min. Intracellular dye deposits were solubilized using 1% […] in a 50% ethanol solution (100 μL). The plates were then gently shaken (20 min.) at room temperature to dissolve and release the dye from the cells. Finally, spectrophotometric measurement was performed at 540 nm using an EL800 Universal Microplate Reader (BioTek Instruments, Winooski, VT, USA).

[3] = Flow cytometry annexin V-FITC/PI, cell death types in CCD 841 CoTr cells; assay type: cell-based, human; conditions: human, CCD 841 CoTr cells (normal cells), read-out: Percentage of viable cells
Protocol: (§2) In a further flow cytometric study measuring normal and tumor cell death types, the cells were exposed to the cannabinoids at a concentration of 25 μg/mL for 24 h.
(§3) The annexin V-fluorescein isothiocyanate (FITC)/propidium iodide (PI) apoptosis kit (BD Biosciences, BD Pharmingen™, San Jose, CA, USA) was used for the quantitative analysis of cannabinoid-induced cell death.
(§4) For the analyses, both adhered (after detaching the cells with 10 mM EDTA in PBS w/o Ca^2+ and Mg^2+ ions solution) and floating cells were collected after 24 h of incubation with the tested cannabinoids. After collection, the cells were gently centrifuged (1000 rpm/5 min.). Next, the supernatant was discarded, and the cell pellet was suspended in warm PBS w/o Ca^2+ and Mg^2+ ions and incubated for 5 min. at room temperature. The centrifugation procedure was repeated again and, following the manufacturer’s procedure, the cells were suspended in 100 μL of 1X Annexin V Binding Buffer with 5 μL of FITC Annexin V […] and 5 μL of propidium iodide (PI) (5 mM). The preparation was gently vortexed and incubated at room temperature for 15 min. in the dark. After that time, the cells were subjected to cytometric analysis. Before dosing the cells into the cytometer, 400 μL of 1X Binding Buffer was added. The cells were analyzed using a flow cytometer (BD FACSCalibur) with CellQuest Pro Version 6.0 software within 1 h after the staining was completed.

CCD 841 CoTr cells [4] = test: as above; assay type: cell-based, human; conditions: 25 μg/mL, 24 h
Protocol: as §2, §3, §4

HT29 cells [5] = test: Flow cytometry (PI) cell cycle analysis of HT29 cells; assay type: cell-based, human; conditions: HT29, 25 μg/mL, 24 h
Protocol: (§5) In the flow cytometric study, we assessed the impact of the cannabinoids at a concentration of 25 μg/mL on the distribution of cell cycle phases in the normal and cancer cells after 24 h incubation. Both adhered, and non-adsorbed (floating) cells were used to perform the analyses. They were collected after 24 h of incubation with the tested cannabinoids and centrifuged (3000 rpm/5 min.). Next, the cell pellet was rinsed and suspended in PBS w/o Ca^2+ and Mg^2+ ions and centrifuged again (3000 rpm/5 min.). The cell pellet was suspended and fixed in 70% ethanol (1 mL). Untreated cells served as a control. The cells were stored at −20 °C for 1 week. After that time, in accordance with the manufacturer protocol, the cells were subjected to the PI staining procedure (PI/RNase Staining Buffer, BD PharmingenTM, BD Biosciences, San Jose, CA, USA). Briefly, 1 mL of PBS w/o Ca^2+ and Mg^2+ ions was added to 1 mL of ethanol and incubated with gentle stirring for 5 min. at room temperature. Next, the cells were centrifuged (3000 rpm/5 min.) and suspended in PBS w/o Ca^2+ and Mg^2+ ions with gentle stirring for 5 min. at room temperature. The cells were centrifuged once again (3000 rpm/5 min.) and the cell pellet was suspended in 500 μL of PI/RNase Staining Buffer. The incubation was carried out for 15 min. at room temperature. Finally, the intensity of the PI fluorescence was measured using FACS Calibur (BD Pharmingen^TM). The obtained data were analyzed using Cell Quest Pro Version 6.0. for the Macintosh operating system (BD Pharmingen^TM). The percentage of cells in the appropriate phases of the cycle was calculated based on all analyzed gated cells. A total of 10,000 events were measured per sample.

CCD 841 CoTr cells [6] = test: Flow cytometry (PI) cell cycle analysis of CCD 841 CoTr cells; assay type: cell-based, human; conditions: 25 μg/mL, 24 h
Protocol: as §5

[7] = CCD 841 CoTr colon normal cells, 24 h incubation

Row | Structure (SMILES) | IC50 (CCD 841 CoTr cells [1]; [7]) [µg/mL] | IC50 (HT29 cells [2]) [µg/mL] | viability at 24 h, 25 μg/mL [3] [%] | Percentage of cells in early apoptosis (CCD 841 CoTr cells [4]) [%] | Percentage of cells in late apoptosis (CCD 841 CoTr cells [4]) [%] | Percentage of cells in necrosis (CCD 841 CoTr cells [4]) [%] | Reduction in the number of viable normal cells compared to the control (CCD 841 CoTr cells [4]) | Increase in the number of cells in the sub-G1 phase compared to the control (HT29 cells [5]) [%] | Percentage of cells in G1 phase (HT29 cells [5]) [%] | Percentage of cells in G2 phase (HT29 cells [5]) [%] | Percentage of cells in S phase (HT29 cells [5]) [%] | Percentage of cells in sub-G1 phase (HT29 cells [5]) [%] | Increase in the number of cells in the sub-G1 phase compared to the control (CCD 841 CoTr cells [6]) [%] | Percentage of cells in G1 phase (CCD 841 CoTr cells [6]) [%] | Percentage of cells in G2 phase (CCD 841 CoTr cells [6]) [%] | Percentage of cells in S phase (CCD 841 CoTr cells [6]) [%] | Percentage of cells in sub-G1 phase (CCD 841 CoTr cells [6]) [%] | Effect on cell cycle transitions (in words) (CCD 841 CoTr cells [6]) | also measured
1 | CCCCCc1cc(O)cc(O)c1C/C=C(\C)CCC=C(C)C [abn-CBG, abnormal cannabigerol] | 15.3 (≈ 48.5 µM) | 13.7 (≈ 43.2 µM) | 25.5 ± 1.2 | 8.57 ± 1.67 | 18.36 ± 3.62 | 47.55 ± 4.12 | 66.79% | 80.59 | 7.97 ± 0.35 | 3.62 ± 0.54 | 5.09 ± 0.50 | 81.92 ± 1.80 | 53.97 | 11.63 ± 0.83 | 3.46 ± 0.79 | 8.24 ± 0.56 | 76.10 ± 2.21 | – | Reduction of the metabolism of normal cells (MTT) (CCD 841 CoTr cells [1]; CCD 841 CoTr, 25 μg/mL, 24 h): over 81%; Cells in necrosis, more than in the control (CCD 841 CoTr cells [4]): 47.27%; Early and late apoptosis together, dying cells compared to the control (CCD 841 CoTr cells [4]): 19.52%
2 | CCCCCc1cc2c3c(c1)OC(C)(C)C1CCC(C)(CC31)O2 (stereo not shown) [CBT, cannabicitran] | 55.5 (≈ 177 µM) | 53.9 (≈ 171 µM) | 87.3 ± 2.11 | 2.90 ± 0.74 | 8.72 ± 1.91 | 1.08 ± 0.56 | 5.02% | 17.93 | 41.86 ± 0.64 | 17.90 ± 0.81 | 18.64 ± 0.81 | 19.26 ± 0.67 | 6.71 | 28.81 ± 0.86 | 16.54 ± 0.72 | 22.23 ± 0.15 | 28.84 ± 0.66 | caused the accumulation of cells in the S phase | Cells in late apoptosis, more than in the control (CCD 841 CoTr cells [4]): 3.12%; Effect on cell cycle transitions (in words) (HT29 cells [5]): limited the transition of cells from the S phase to the G2 phase
3 | CCCCCc1cc(O)c2c(c1)OC(C)(CCC=C(C)C)C=C2 (stereo not shown) [CBC, cannabichromene] | 75.2 (≈ 239 µM) | 60.6 (≈ 193 µM) | 91.4 ± 1.19 | 2.51 ± 0.54 | 5.58 ± 1.02 | 0.54 ± 0.39 | did not significantly affect | 1.19 | 50.90 ± 0.73 | 26.23 ± 0.39 | 16.71 ± 0.37 | 2.52 ± 0.10 | – | 32.31 ± 0.62 | 22.78 ± 0.86 | 23.38 ± 0.79 | 15.17 ± 0.79 | limited the transition of cells from the S to G2 phase | IC50 Values (MTT method) (CCD 841 CoTr cells [1]; [7]): 75.29 µg/mL (≈ 239 µM); Stimulation of cell metabolism compared to the control (MTT) (CCD 841 CoTr cells [1]; CCD 841 CoTr, lowest concentration, 24 h): over 4%; Reduction in the number of cells in the G2 phase compared to the control (HT29 cells [5]): 3.24%; Reduction in the number of cells in the sub-G1 phase compared to the control (CCD 841 CoTr cells [6]): 6.96%
